Key:
6-OHDA lesioned rat = assay: 6-OHDA-lesioned rat Parkinson's disease model, paw placing test; type: in vivo
Experimental: The effects of compound 4 alone and in combination with L-DOPA were evaluated in the rodent 6-OHDA-lesioned rat Parkinson's disease model. The method, which detects antiparkinson activity (reversal of motor deficits and akinesia), follows that described by Henry et al. (Exp Neurol, 151(2): 334-42, 1998).
Animal Preparation: Prior to surgery, rats were administered pargyline (5 mg/kg, ip) and desipramine (25 mg/kg ip) to optimize subsequent 6-OHDA availability and increase specificity for toxicity to dopaminergic neurons. Rats were then anesthetized with isoflurane and placed in a stereotaxic frame. After exposure of Bregma, a burr hole was drilled in the skull above the right median forebrain bundle at co-ordinates: 2.8 mm posterior and 2 mm lateral to Bregma (according to the atlas of Paxinos and Watson, 1986). […]
Paw Placing Test: The paw placing test assesses correct placing of each forepaw in response to a sensory stimulus. […] The test was quantified as the percentage of successful placing responses of the limb contralateral to the side of the 6-OHDA lesion. […]
Drug Administration: For the monotherapy experiment, the effects of 5 different treatments were assessed: 1) vehicle (sterile water, PO), 2) 3 mg/kg compound 4 (PO), 3) 10 mg/kg compound 4 (PO), 4) 30 mg/kg compound 4 and 5) 6.5 mg/kg (IP) of the positive reference substance, L-DOPA. […]

[1] = molecular target: T1, Norepinephrine Transporter (NET) (Mus musculus, UniProt O55192); assay: ex vivo [3H] nisoxetine binding to NET sites in mouse brain; details: mice, 60 minutes after treatment
T1 construct: Cortical membranes (400 μL; equivalent to 6.0 mg wet weight of tissue/tube); from tissue; host or cells: frontal cortex of C57BL/6 mice
Experimental: Receptor occupancy of central noradrenaline (NA), 5-HT and dopamine (DA) transporter sites following peripheral administration of compounds was determined using [^3H] nisoxetine, [^3H] citalopram and [^3H] WIN 35428 binding, respectively. Liquid scintillation counting was used to quantify the radioactivity.
C57BL/6 mice (25-30 g) were dosed orally with either vehicle or compound at 4 dose levels. Mice were sacrificed 60 minutes after treatment. Whole brains were removed and cortex and striata dissected out before being frozen on dry ice. The brain tissue was stored at −20° C. until the day of the assay. The cortex from each hemisphere was frozen separately. One was used to determine occupancy of NA transporter sites and the other occupancy of 5-HT transporter sites. Striatum was used to determine occupancy of DA transporter sites.
Frontal cortex from each hemisphere or striata was homogenized individually in ice-cold assay buffer using a tight fitting glass/Teflon homogenizer and used immediately in the binding assay.
Cortical membranes (400 μL; equivalent to 6.0 mg wet weight of tissue/tube) were incubated with 50 μL of [^3H] nisoxetine at a single concentration of 0.6 nM and either 50 μL of buffer (total binding) or 50 μL of mazindol (1 μM; non-specific binding) for 4 h at 4° C. For each animal, three tubes were used for the determination of total binding and three tubes were used for the determination of non-specific binding.
Membrane bound radioactivity was recovered by filtration under vacuum through Skatron 11731 filters, presoaked in 0.5% PEI, using a Skatron cell harvester. Filters were rapidly washed with ice-cold phosphate buffer and radioactivity (dpm) was determined by liquid scintillation counting (1 mL Packard MV Gold scintillator).
A value for specific binding (dpm) was generated by the subtraction of mean non-specific binding (dpm) from mean total binding (dpm) for each animal. Data are presented as mean specific binding (dpm) and as a percentage of the vehicle-treated control taken as 100%.

T1 sequence (O55192 whole entry): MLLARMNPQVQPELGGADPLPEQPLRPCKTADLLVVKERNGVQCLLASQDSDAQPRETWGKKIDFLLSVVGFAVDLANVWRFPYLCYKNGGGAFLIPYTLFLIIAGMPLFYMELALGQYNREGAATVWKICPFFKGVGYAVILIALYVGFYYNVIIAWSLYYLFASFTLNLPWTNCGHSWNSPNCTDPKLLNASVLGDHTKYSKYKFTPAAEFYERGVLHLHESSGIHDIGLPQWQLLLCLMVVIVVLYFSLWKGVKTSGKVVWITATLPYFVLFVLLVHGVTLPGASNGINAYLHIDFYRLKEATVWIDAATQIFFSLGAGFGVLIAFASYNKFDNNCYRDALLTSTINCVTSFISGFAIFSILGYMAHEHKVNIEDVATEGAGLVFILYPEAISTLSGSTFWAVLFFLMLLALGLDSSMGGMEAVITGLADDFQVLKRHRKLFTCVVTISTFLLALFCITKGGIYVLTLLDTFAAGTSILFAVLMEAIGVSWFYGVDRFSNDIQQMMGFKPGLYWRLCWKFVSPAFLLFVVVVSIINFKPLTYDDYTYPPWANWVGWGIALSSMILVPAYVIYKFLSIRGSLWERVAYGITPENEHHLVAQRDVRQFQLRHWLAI

| SMILES | paw placement performance (6-OHDA lesioned rat; 10 mg/kg, PO in combination with low dose L-DOPA, FIG. 6) | performance in the paw placement task (6-OHDA lesioned rat; alone, 3-30 mg/kg, PO) | % Transporter Occupancy, NET ([1]; 1 mg/kg PO) | % Transporter Occupancy, NET ([1]; 3 mg/kg PO) | % Transporter Occupancy, NET ([1]; 10 mg/kg PO) | % Transporter Occupancy, NET ([1]; 30 mg/kg PO) |
| --- | --- | --- | --- | --- | --- | --- |
| CNC[C@@H]1CCCC[C@@]1(O)c1ccc(Cl)c(Cl)c1 [Compound 4] | significantly increased paw placement performance | little or no improvement in performance |  |  |  |  |
| CN(C)C[C@@H]1CCCC[C@@]1(O)c1ccc(Cl)c(Cl)c1 (single isomer, unassigned) [Compound 2, cis-1-(3,4-dichlorophenyl)-2-((dimethylamino)methyl)cyclohexanol] |  |  | 19% | 44% | 74% | 89% |

From US8669291B2, “Phenyl substituted cycloalkylamines as monoamine reuptake inhibitors” (Sunovion Pharmaceuticals Inc., priority 2007, dated 2014)
